Calls of active or inactive are those of the source. The rule behind the calls is not given here.
Experiments:
[1] = target: T1, Mineralocorticoid receptor (Homo sapiens) (UniProt P08235); assay: Percent inhibition of mineralocorticoid receptor transcriptional activity at aldosterone EC50; NA=not active; type: functional
T1 sequence (whole entry): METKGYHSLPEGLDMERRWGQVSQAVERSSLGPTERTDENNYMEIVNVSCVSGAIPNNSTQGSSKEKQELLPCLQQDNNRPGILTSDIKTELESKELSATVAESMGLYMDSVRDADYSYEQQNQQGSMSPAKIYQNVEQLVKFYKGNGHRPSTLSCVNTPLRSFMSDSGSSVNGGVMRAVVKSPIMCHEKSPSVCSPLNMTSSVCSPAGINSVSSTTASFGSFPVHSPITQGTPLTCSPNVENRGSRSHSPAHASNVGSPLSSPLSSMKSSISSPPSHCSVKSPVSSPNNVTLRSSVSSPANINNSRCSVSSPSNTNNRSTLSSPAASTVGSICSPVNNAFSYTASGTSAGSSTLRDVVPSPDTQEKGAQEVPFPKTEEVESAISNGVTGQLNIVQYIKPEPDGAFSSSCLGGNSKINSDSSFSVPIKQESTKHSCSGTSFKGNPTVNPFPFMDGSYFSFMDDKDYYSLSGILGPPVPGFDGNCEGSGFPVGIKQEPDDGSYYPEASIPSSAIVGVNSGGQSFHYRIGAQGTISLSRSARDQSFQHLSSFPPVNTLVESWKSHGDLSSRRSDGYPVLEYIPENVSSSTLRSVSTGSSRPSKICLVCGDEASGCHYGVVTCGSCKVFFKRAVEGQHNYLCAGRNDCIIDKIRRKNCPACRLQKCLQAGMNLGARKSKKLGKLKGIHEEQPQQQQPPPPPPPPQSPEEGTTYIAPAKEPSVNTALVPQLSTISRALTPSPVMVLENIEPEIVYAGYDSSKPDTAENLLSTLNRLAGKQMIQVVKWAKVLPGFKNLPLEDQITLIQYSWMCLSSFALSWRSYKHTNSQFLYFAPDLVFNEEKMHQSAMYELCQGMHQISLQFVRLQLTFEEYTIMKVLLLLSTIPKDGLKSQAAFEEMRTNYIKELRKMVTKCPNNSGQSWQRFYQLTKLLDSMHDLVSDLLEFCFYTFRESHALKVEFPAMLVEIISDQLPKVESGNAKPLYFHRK

Progesterone receptor [2] = target: T2, Progesterone receptor (Homo sapiens, UniProt P06401); assay: Human progesterone receptor (hPR) agonist activity in T47D human breast cancer cell line; type: functional, cell-based
T2 sequence (P06401 whole entry): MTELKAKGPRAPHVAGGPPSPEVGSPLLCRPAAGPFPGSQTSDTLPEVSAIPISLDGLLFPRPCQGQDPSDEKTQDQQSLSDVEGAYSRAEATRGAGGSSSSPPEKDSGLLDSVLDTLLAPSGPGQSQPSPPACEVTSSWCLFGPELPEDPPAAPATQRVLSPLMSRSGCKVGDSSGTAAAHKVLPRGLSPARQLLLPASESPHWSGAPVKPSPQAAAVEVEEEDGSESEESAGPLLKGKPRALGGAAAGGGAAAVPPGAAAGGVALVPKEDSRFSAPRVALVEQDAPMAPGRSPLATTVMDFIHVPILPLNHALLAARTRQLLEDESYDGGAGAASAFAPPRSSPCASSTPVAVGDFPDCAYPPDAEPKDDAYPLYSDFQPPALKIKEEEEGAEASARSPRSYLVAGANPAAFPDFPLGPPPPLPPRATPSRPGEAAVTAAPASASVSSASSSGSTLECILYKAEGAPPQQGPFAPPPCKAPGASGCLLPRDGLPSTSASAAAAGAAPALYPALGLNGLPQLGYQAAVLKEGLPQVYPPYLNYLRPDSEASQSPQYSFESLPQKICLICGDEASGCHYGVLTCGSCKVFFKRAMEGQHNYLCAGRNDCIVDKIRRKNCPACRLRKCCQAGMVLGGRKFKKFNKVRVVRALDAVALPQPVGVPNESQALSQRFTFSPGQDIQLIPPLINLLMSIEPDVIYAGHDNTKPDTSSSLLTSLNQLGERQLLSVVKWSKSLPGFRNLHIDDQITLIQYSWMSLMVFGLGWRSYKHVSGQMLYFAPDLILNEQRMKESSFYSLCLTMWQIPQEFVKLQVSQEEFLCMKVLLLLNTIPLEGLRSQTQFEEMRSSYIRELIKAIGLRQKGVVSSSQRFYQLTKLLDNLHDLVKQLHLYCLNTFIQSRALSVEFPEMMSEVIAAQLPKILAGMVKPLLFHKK

Progesterone receptor [3] = target: T2, Progesterone receptor; assay: Antagonist activity against human progesterone receptor (hPR) in T47D human breast cancer cell line; type: functional, cell-based
[4] = target: T3, Glucocorticoid receptor (Homo sapiens) (UniProt P04150); assay: Percent inhibition of glucocorticoid receptor transcriptional activity at Dexamethasone EC50; NA=not active; type: functional
T3 sequence (whole entry): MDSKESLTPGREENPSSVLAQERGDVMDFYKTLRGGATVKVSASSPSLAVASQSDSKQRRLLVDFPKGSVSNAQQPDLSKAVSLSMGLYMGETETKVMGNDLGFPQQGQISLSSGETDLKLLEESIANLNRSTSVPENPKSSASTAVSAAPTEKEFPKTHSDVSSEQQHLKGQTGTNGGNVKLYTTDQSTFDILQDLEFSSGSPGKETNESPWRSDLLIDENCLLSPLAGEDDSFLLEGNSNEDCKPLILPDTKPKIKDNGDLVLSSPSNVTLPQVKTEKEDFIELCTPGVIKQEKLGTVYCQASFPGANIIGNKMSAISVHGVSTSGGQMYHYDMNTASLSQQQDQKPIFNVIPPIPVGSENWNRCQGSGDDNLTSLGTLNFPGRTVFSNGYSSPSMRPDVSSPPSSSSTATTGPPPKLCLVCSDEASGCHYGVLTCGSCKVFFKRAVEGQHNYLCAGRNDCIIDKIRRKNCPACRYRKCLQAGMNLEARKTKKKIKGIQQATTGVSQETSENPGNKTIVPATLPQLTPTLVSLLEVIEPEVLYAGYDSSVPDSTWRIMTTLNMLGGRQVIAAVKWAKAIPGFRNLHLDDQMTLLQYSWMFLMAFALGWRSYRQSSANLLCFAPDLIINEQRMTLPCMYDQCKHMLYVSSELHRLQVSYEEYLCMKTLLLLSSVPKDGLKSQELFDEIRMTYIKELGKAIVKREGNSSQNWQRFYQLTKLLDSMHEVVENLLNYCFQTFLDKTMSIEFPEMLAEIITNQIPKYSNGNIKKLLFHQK

Glucocorticoid receptor = target: T4, Glucocorticoid receptor (Homo sapiens, UniProt P04150); assay: Cross-reactivity as binding to human glucocorticoid receptor (hGR); NA=not active; type: functional
T4 sequence (P04150 whole entry): T3 sequence (whole entry)

Efficacy [1]: inactive | EC50 (Progesterone receptor [2]): 1020 nM | IC50 (Progesterone receptor [3]): 70 nM | Efficacy [4]: inactive | IC50 (Glucocorticoid receptor): Not Active
SMILES: CC1=CC(C)(C)Nc2ccc(-c3ccc([N+](=O)[O-])s3)cc21

Reference: ChEMBL document CHEMBL1133403 (Bioorg Med Chem Lett, 2000)
